The test system of assay [1] is total lung sialidase (NEU) activity. As to the kind of experiment: Total sialidase (NEU) activity for 4-MU-NANA in mouse lung after in vivo dosing. Further details: lung sialidase activity: dose or concentration left out as unconfirmed. As to conditions: for total lung sialidase activity: 15 mg/kg ip, harvested 18 h later. As for the experimental part: Wild-type female C57BL/6 mice aged 10-12 weeks and weighing 18-20 g (The Jackson Laboratory, Bar Harbor, Me.) were treated in accordance with a research protocol approved by the University of Maryland Institutional Animal Care and Use Committee. Animals were maintained in sterile microisolator cages with sterile rodent feed and water in the Baltimore VA Medical Center Research Animal Facility approved by the Association for Assessment and Accreditation of Laboratory Animal Care. To model pulmonary inflammation and fibrosis, a single dose of 0.075 U of bleomycin (BLM)(Sigma-Aldrich, St. Louis, Mo.) diluted in 50 μl of sterile phosphate-buffered saline (PBS) was intratracheally (i.t.) delivered to mouse lungs on day 0. Briefly, a minor anterior midline neck incision was made to reveal the trachea, and a MicroSprayer® (Penn-Century, Wyndmoor, Philadelphia, Pa.) was inserted i.t., and the bleomycin or sterile PBS alone instilled. […] On day 14, mice were euthanized by CO2 asphyxiation followed by cervical dislocation. Immediately postmortem, bronchoalveolar lavage fluid (BALF)s and lungs were harvested. BALF samples were collected and analyzed. Installation and withdrawal of 1 ml of PBS twice via an 18-gauge blunt-end needle secured in the trachea were performed in each animal The 2 aliquots of BALF were pooled, centrifuged, and total and differential cell counts performed. The lungs were processed for qRT-PCR, to measure levels for NEU 1-4, PPCA, collagen 1α2, and collagen 3α1transcripts, quantitative immunoblotting for NEU1-4 and PPCA proteins, and determination of hydroxyproline as a measure of total collagen. In selected experiments, lung tissue was processed for assays of total sialidase activity for fluorogenic substrate, 2′-(4-methylumbelliferyl)-α-D-N-acetylneuraminic acid (4-MU-NANA) and peanut agglutinin (PNA) lectin blotting as an indicator of desialylation.
Fluorometric Assay for Sialidase Activity: Lungs harvested from mice pretreated with one of three sialidase inhibitors or saline alone were weighed, homogenized, centrifuged, and the supernatants collected. These samples and SAECs, HPMECs, and NHLFs preincubated with increasing concentrations of the NEU1-selective NEU inhibitor, III-32B5 were suspended in 200μλ of 500 mM sodium acetate, pH 4.4 containing 0.1% Triton X-100, and a protease inhibitor mixture (Roche Applied Science), and then incubated for 1 h at 37° C. with 25 μl of 2.0 mM 2′-(4-methylumbelliferyl)-α-D-N-acetylneuraminic acid (4-MU-NANA), mixing the tubes every 15 min. The NEU reaction was terminated by addition of 133 mM glycine, pH 10.3, 60 mM NaCl, and 0,083 M […] after which the fluorescence intensity was measured with a Bio-Rad fluorometer (excitation at 355 nm; emission at 460 nm). […]

Assay [2] relates to bleomycin-challenged C57BL/6 mice. Briefly: Bleomycin-induced pulmonary fibrosis model. The class given is in vivo, mouse. As to conditions: for BALF total cell counts, lymphocytes, and neutrophils / lung collagen mRNA (collagen 1A2, collagen 3A1; qRT-PCR) / lung collagen protein (hydroxyproline-based QuickZyme assay): 15 mg/kg i.p. daily days 8-14, day 14, vs bleomycin alone; for total body weight: 15 mg/kg i.p. daily on days 8-14 after bleomycin, by day 14. The procedure: Wild-type female C57BL/6 mice aged 10-12 weeks and weighing 18-20 g (The Jackson Laboratory, Bar Harbor, Me.) were treated in accordance with a research protocol approved by the University of Maryland Institutional Animal Care and Use Committee. Animals were maintained in sterile microisolator cages with sterile rodent feed and water in the Baltimore VA Medical Center Research Animal Facility approved by the Association for Assessment and Accreditation of Laboratory Animal Care. To model pulmonary inflammation and fibrosis, a single dose of 0.075 U of bleomycin (BLM)(Sigma-Aldrich, St. Louis, Mo.) diluted in 50 μl of sterile phosphate-buffered saline (PBS) was intratracheally (i.t.) delivered to mouse lungs on day 0. Briefly, a minor anterior midline neck incision was made to reveal the trachea, and a MicroSprayer® (Penn-Century, Wyndmoor, Philadelphia, Pa.) was inserted i.t., and the bleomycin or sterile PBS alone instilled. Mice were serially weighed, and on days 8-14, daily administered intraperitoneally (i. p.) with 15 mg/kg of 2DN, or […], or III-32B5, or vehicle alone. On day 14, mice were euthanized by CO2 asphyxiation followed by cervical dislocation. Immediately postmortem, bronchoalveolar lavage fluid (BALF)s and lungs were harvested. BALF samples were collected and analyzed. Installation and withdrawal of 1 ml of PBS twice via an 18-gauge blunt-end needle secured in the trachea were performed in each animal The 2 aliquots of BALF were pooled, centrifuged, and total and differential cell counts performed. […] Total cellular RNA was extracted from murine lung tissue. RNA purity was established with the A260/A280 absorption ratio (>1.90). Total RNA (1.0 μg) was treated with DNase I (Invitrogen) for 15 min and reverse transcribed using avian myeloblastosis virus reverse transcriptase and poly(T) primer (Promega). The resulting cDNA was quantified by real time quantitative reverse transcription-polymerase chain reaction (qRT-PCR) using SYBR Green PCR Master Mix and ABI Prism 7900HT cycler. […] Measurement of Total Lung Collagen: Collagen content was measured in lung tissue based on detection of hydroxyproline, using the Total Collagen Assay kit from QuickZyme (Leiden, The Netherlands). Briefly, following hydrolysis of 50 mg lung tissue in […] of 6M HCl for 20 h at 95° C., the hydrolysate was diluted 10-fold with 4M HCl and measured against serial dilutions of collagen standard; the results were expressed as μg collagen per mg wet lung tissue. Mice challenged I.T. with bleomycin were serially weighed, and on days 8-14, daily administered i.p. 2DN or vehicle alone. On day 14, mice were sacrificed, and BALF and lungs harvested. The BALF was processed for total and differential cell counts, and lung tissues were collagenase-digested for lymphocyte counts and flow cytometry, processed for qRT-PCR for collagen mRNA expression, or homogenized for hydroxyproline-based assays to quantify collagen protein (FIG. 1C, 1D, 1E). In all bleomycin-challenged mice, total body weight decreased through days 1-7 (FIG. 1B). While the saline-injected, bleomycin-challenged mice continued to lose body weight through the 14-day study period, on days ≥9, the 2DN-treated, bleomycin-administered mice maintained and even increased body weight. […] On day 14, total and differential BALF cell counts were performed (FIG. 1C). In the PBS-injected, bleomycin-challenged mice, total cell counts, macrophages, lymphocytes, and neutrophils each were increased compared to BALF cell counts for the simultaneous saline controls. The addition of broad-spectrum NEU inhibition with 2DN reversed the increased in total cell counts, lymphocytes, and neutrophils, each compared to counts in the PBS-injected, bleomycin-challenged mice. In these same mice, lung homogenates were processed for qRT-PCR using primers for collagen 1A2 and collagen 3A1 to quantify their mRNA expression (FIG. 1D). […]

Assay [3] relates to SAECs (human primary small airway epithelial cells). The conditions noted are these: cited from earlier work.
The subject of assay [4] is HPMECs (human primary pulmonary microvascular endothelial cells). The conditions noted are these: cited from earlier work.
The subject of assay [5] is HLFs (human lung fibroblasts). As to conditions: cited from earlier work.
For assay [6], the system named is BALF cell sialidase activity. As to the kind of experiment: Total BALF cell sialidase activity after in vivo dosing. Also noted: species or system mouse. As to conditions: 15 mg/kg ip, re-injected after 24 h, harvested 18 h later; vs saline. As for the experimental part:
Fluorometric Assay for Sialidase Activity: Lungs harvested from mice pretreated with one of three sialidase inhibitors or saline alone were weighed, homogenized, centrifuged, and the supernatants collected. These samples and SAECs, HPMECs, and NHLFs preincubated with increasing concentrations of the NEU1-selective NEU inhibitor, III-32B5 were suspended in 200μλ of 500 mM sodium acetate, pH 4.4 containing 0.1% Triton X-100, and a protease inhibitor mixture (Roche Applied Science), and then incubated for 1 h at 37° C. with 25 μl of 2.0 mM 2′-(4-methylumbelliferyl)-α-D-N-acetylneuraminic acid (4-MU-NANA), mixing the tubes every 15 min. The NEU reaction was terminated by addition of 133 mM glycine, pH 10.3, 60 mM NaCl, and 0,083 M […] after which the fluorescence intensity was measured with a Bio-Rad fluorometer (excitation at 355 nm; emission at 460 nm).
After 24 h, the mice were administered these same injections, and 18 h later, were euthanized and their BALFs and lungs harvested. The lungs were processed for total protein levels and total sialidase activity. […] The BALFs from these same mice were processed for cell counts and sialidase activity. […] These findings establish the ability of each of 2 NEU1-selective pharmacologic inhibitors to profoundly reduce total lung and BALF cell sialidase activity in vivo. The NEU1 inhibitor can comprise C1-methyl esters of the compounds.

Assay [7] deals with bleomycin-challenged C57BL/6 mice. As to the kind of experiment: Bleomycin-induced pulmonary fibrosis model. In kind it is in vivo, mouse. The conditions noted are these: 15 mg/kg; FIG. 6A.
For another assay, the system named is NEUs 2-4. The conditions noted are these: cited from earlier work.
Assay [8] deals with SAECs (human primary small airway epithelial cells). As to the kind of experiment: Fluorometric sialidase activity assay (4-MU-NANA) in SAECs. The class given is cell-based. As to conditions: increasing concentrations; 1.0×10^6 cells/reaction. The procedure: (§1) Human Lung Cell Cultures: Human primary small airway epithelial cell (SAEC)s isolated from the distal portion of the bronchioles and human primary pulmonary microvascular endothelial cell (HPMEC)s were purchased from Promocell (Heidelberg, Germany) SAECs were cultured in predefined small airway growth medium containing hydrocortisone, human epidermal growth factor, epinephrine, transferrin, insulin, retinoic acid, triiodothyronine, and fatty acid-free bovine serum albumin. Only SAEC passaged 2-4 were studied. HPMECs were cultured in endothelial cell growth medium (MV-2, PromoCell) containing growth medium supplement mix (PromoCell). Only HPMEC passages 4-7 were studied. Primary normal human lung fibroblast (NHLF)s were either isolated from normal lungs initially harvested from lung […] but ultimately not used in a study approved by the Institutional Review Board at the University of Maryland, or purchased from Lonza (Walkersville, Md.). […]
(§2) Fluorometric Assay for Sialidase Activity: Lungs harvested from mice pretreated with one of three sialidase inhibitors or saline alone were weighed, homogenized, centrifuged, and the supernatants collected. […] The NEU reaction was terminated by addition of 133 mM glycine, pH 10.3, 60 mM NaCl, and 0,083 M […] after which the fluorescence intensity was measured with a Bio-Rad fluorometer (excitation at 355 nm; emission at 460 nm). […]

The subject of assay [9] is HPMECs (human primary pulmonary microvascular endothelial cells). As to the kind of experiment: Fluorometric sialidase activity assay (4-MU-NANA) in HPMECs. In kind it is cell-based. As to conditions: increasing concentrations; 1.0×10^6 cells/reaction. The procedure:
as §1, §2

In assay [10] the test system is HLFs (human lung fibroblasts). As to the kind of experiment: Fluorometric sialidase activity assay (4-MU-NANA) in HLFs. In kind it is cell-based. The conditions noted are these: increasing concentrations; 1.0×10^6 cells/reaction. The procedure: as §1, §2
The mark [11] stands for this setting: re-injected after 24 h, vs saline.

Entries after “also recorded” stand apart in the source; their conditions may differ.

As to `CC(=O)N[C@H]1[C@H]([C@H](O)[C@H](O)CO)OC(C(=O)O)C[C@@H]1O` (stereo partly drawn) [2DN, 2-deoxy-N-acetyneuraminic acid, reference compound], the “reduction of total NEU activity in lung” value in assay [1] (15 mg/kg i.p., re-injected after 24 h, lungs harvested 18 h later, vs saline) was “at least 8 fold”. In [2], the “BALF total cell counts, lymphocytes, and neutrophils” value (“BALF total cell counts, lymphocytes” for short) was “reversed”; the “lung collagen mRNA (collagen 1A2, collagen 3A1; qRT-PCR)” value (from here on “lung collagen mRNA”) is on record as “reduced”; the “lung collagen protein (hydroxyproline-based QuickZyme assay)” value (shortened to “lung collagen protein”) is reported as “reversed”; the total body weight result is given as “returned to their pretreatment baseline”. Also, in assay [3], the “sialidase activity in human airway epithelia, previously reported” value was “inhibition”. Also, in [4], the “sialidase activity in human lung microvascular endothelia, previously reported” value is reported as “inhibition”. Moreover, the “sialidase activity in human lung fibroblasts, previously reported” value in assay [5] is on record as “inhibition”.
Consider `CCCCC(=O)NC[C@H](O)[C@H](O)[C@@H]1OC(C(=O)O)=C[C@H](O)[C@H]1NC(C)=O` [C9-BADANA], for which, in assay [1], the lung sialidase activity result is on record as “dramatically reduces”. The “total lung sialidase activity” value in assay [1] (setting [11]) is recorded as “reduced”. In addition, the “total BALF cell sialidase activity” value in assay [6] is reported as “reduced”. For the same molecule, in assay [2], the “BALF total cell counts, lymphocytes” value is on record as “reversed”; the “lung collagen mRNA” value was “protected against”; the “lung collagen protein” value was “protected against; also recorded: significantly decreased”; the total body weight result was “returning to their pretreatment baselines; also recorded: counteracted”. Also, the “14-day collagen deposition, mean value” in assay [2] (mice receiving both BLM and C9-BADANA, BLM alone 13.4±2.1 μg/mg) stood at 8.6 ± 1.7 µg/mg. Further, the lung collagen deposition entry in [7] is given as “dramatically reduces”. Also, in [3], the “sialidase activity in human airway epithelia, previously reported” value is recorded as “inhibition”. In addition, the “sialidase activity in human lung microvascular endothelia, previously reported” value in [4] is “inhibition”. For the same molecule, the “sialidase activity in human lung fibroblasts, previously reported” value in assay [5] is listed as “inhibition”. Also, the IC50 in the assay with NEUs 2-4 was above 1 mM.
Consider `CCCCCC(=O)N[C@H]1[C@H]([C@@H](O)[C@@H](O)CNC(C)=O)OC(C(=O)O)=C[C@@H]1O` [III-32B5, C5-hexanamido-C9-acetamido-DANA], for which the “total lung sialidase activity” value in assay [1] (setting [11]) is “reduced”. For the same molecule, in assay [6], the “total BALF cell sialidase activity” value is recorded as “reduced”. In addition, in assay [2], the “BALF total cell counts, lymphocytes” value is reported as “reversed”; the “lung collagen mRNA” value is on record as “protected against”; the “lung collagen protein” value is recorded as “protected against; also recorded: significantly decreased”; the total body weight entry is on record as “returning to their pretreatment baselines; also recorded: counteracted”. In assay [8], the “sialidase activity in SAECs” value is “dose-dependently inhibited”. Also, in [9], the “sialidase activity in HPMECs” value is “dose-dependently inhibited”. Also, the “sialidase activity in HLFs” value in [10] was “dose-dependently inhibited”.

The values are drawn from US20220280472A1, “TREATMENT OF PULMONARY FIBROSIS USING INHIBITORS OF NEU1 SIALIDASE” (University of Maryland, Baltimore, priority 2019, published 2022).
